Experimental data taken from PubChem BioAssay (NCI).
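Five compound concentrations were applied to cells in 96-well plates for 48 hours; endpoints were derived by simple linear interpolation of the resulting dose-response curve. TGI: total growth inhibition.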

What was measured:
Assay in all cases: growth of human tumour cells (NCI), 48 h
[1] = system: NCI-H522 lung
[2] = system: DU-145 prostate
[3] = system: PC-3 prostate
[4] = system: SNB-19 CNS
[5] = system: NCI-H23 lung
[6] = system: TK-10 renal
[7] = system: SF-268 CNS
[8] = system: HOP-92 NSCLC
[9] = system: SF-295 CNS
[10] = system: U251 CNS
[11] = system: MALME-3M melanoma
[12] = system: ACHN renal
[13] = system: MCF7 breast
[14] = system: NCI-H460 lung
[15] = system: M14 melanoma
[16] = system: SNB-75 CNS
[17] = system: OVCAR-4 ovarian
[18] = system: T-47D breast
[19] = system: EKVX NSCLC
[20] = system: SK-OV-3 ovarian
[21] = system: SR leukemia
[22] = system: NCI-H226 lung
[23] = system: HCT-116 colon
[24] = system: MDA-MB-435
[25] = system: RXF 393 renal
[26] = system: SK-MEL-28 melanoma
[27] = system: SK-MEL-2 melanoma
[28] = system: HCT-15 colon
[29] = system: SN12C renal
[30] = system: LOX IMVI melanoma
[31] = system: UO-31 renal
[32] = system: OVCAR-3 ovarian
[33] = system: HT29 colon
[34] = system: IGROV1 ovarian
[35] = system: SK-MEL-5 melanoma
[36] = system: NCI/ADR-RES ovarian
[37] = system: RPMI-8226 leukemia
[38] = system: A498 renal
[39] = system: UACC-257 melanoma
[40] = system: CAKI-1 renal
[41] = system: A549 NSCLC
[42] = system: KM12 colon
[43] = system: HL-60(TB) leukemia
[44] = system: OVCAR-5 ovarian
[45] = system: 786-0 renal
[46] = system: OVCAR-8 ovarian
[47] = system: HOP-62 NSCLC
[48] = system: SW-620 colon
[49] = system: MDA-MB-231 breast
[50] = system: MDA-N
[51] = system: K-562 leukemia
[52] = system: SF-539 CNS
[53] = system: COLO 205 colon
[54] = system: UACC-62 melanoma
[55] = system: HS 578T breast
[56] = system: BT-549 breast
[57] = system: MOLT-4 leukemia
[58] = system: CCRF-CEM leukemia
[59] = system: HCC-2998 colon

With `NC(N)=NCC(N)C(=O)O` (stereo not given) the TGI [1] was > 100 µM, the TGI [2] was > 100 µM and the TGI [3] was > 100 µM. For the same molecule, the TGI [4] was > 100 µM, the TGI [5] was > 100 µM and the TGI [6] was > 100 µM. The TGI [7] was > 100 µM, the TGI [8] was > 100 µM and the TGI [9] was > 100 µM. For the same molecule, the TGI [10] was > 100 µM, the TGI [11] was > 100 µM and the TGI [12] was > 100 µM. For the same molecule, the TGI [13] was > 100 µM, the TGI [14] was > 100 µM and the TGI [15] was > 100 µM. For the same molecule, the TGI [16] was > 100 µM, the TGI [17] was > 100 µM and the TGI [18] was > 100 µM. The TGI [19] was > 100 µM, the TGI [20] was > 100 µM and the TGI [21] was > 100 µM. The TGI [22] was > 100 µM, the TGI [23] was > 100 µM and the TGI [24] was > 100 µM. The TGI [25] was > 100 µM, the TGI [26] was > 100 µM and the TGI [27] was > 100 µM. The TGI [28] was > 100 µM, the TGI [29] was > 100 µM and the TGI [30] was > 100 µM. For the same molecule, the TGI [31] was > 100 µM, the TGI [32] was > 100 µM and the TGI [33] was > 100 µM. The TGI [34] was > 100 µM, the TGI [35] was > 100 µM and the TGI [36] was > 100 µM. The TGI [37] was > 100 µM, the TGI [38] was > 100 µM and the TGI [39] was > 100 µM. For the same molecule, the TGI [40] was > 100 µM, the TGI [41] was > 100 µM and the TGI [42] was > 100 µM. For the same molecule, the TGI [43] was > 100 µM, the TGI [44] was > 100 µM and the TGI [45] was > 100 µM. For the same molecule, the TGI [46] was > 100 µM, the TGI [47] was > 100 µM and the TGI [48] was > 100 µM. The TGI [49] was > 100 µM, the TGI [50] was > 100 µM and the TGI [51] was > 100 µM. For the same molecule, the TGI [52] was > 100 µM, the TGI [53] was > 100 µM and the TGI [54] was > 100 µM. The TGI [55] was > 100 µM and the TGI [56] was > 100 µM.

With `CC1(C)CC[C@]2(C(=O)O)[C@H](O)C[C@]3(C)C(=CC[C@@H]4[C@@]5(C)CC[C@H](OC6OC(C(=O)O)C(O)C(O)C6O)C(C)(C)[C@@H]5CC[C@]43C)[C@@H]2C1` (stereo not given in full) the TGI [1] was > 100 µM, the TGI [2] was > 100 µM and the TGI [3] was > 100 µM. For the same molecule, the TGI [4] was > 100 µM, the TGI [5] was > 100 µM and the TGI [7] was > 100 µM. For the same molecule, the TGI [57] was > 100 µM, the TGI [8] was 39.2 µM and the TGI [9] was > 100 µM. The TGI [10] was > 100 µM, the TGI [58] was > 100 µM and the TGI [11] was > 100 µM. For the same molecule, the TGI [12] was > 100 µM, the TGI [13] was > 100 µM and the TGI [14] was > 100 µM. For the same molecule, the TGI [15] was > 100 µM, the TGI [16] was > 100 µM and the TGI [17] was 58.4 µM. The TGI [18] was > 100 µM, the TGI [19] was > 100 µM and the TGI [20] was > 100 µM. For the same molecule, the TGI [21] was 46.7 µM, the TGI [22] was > 100 µM and the TGI [23] was > 100 µM. For the same molecule, the TGI [24] was > 100 µM, the TGI [25] was 81.6 µM and the TGI [26] was 37.1 µM. The TGI [27] was > 100 µM, the TGI [28] was > 100 µM and the TGI [29] was 94.9 µM. For the same molecule, the TGI [30] was > 100 µM, the TGI [31] was 32 µM and the TGI [32] was > 100 µM. For the same molecule, the TGI [33] was > 100 µM, the TGI [34] was > 100 µM and the TGI [35] was > 100 µM. For the same molecule, the TGI [36] was > 100 µM, the TGI [37] was > 100 µM and the TGI [38] was 37.4 µM. For the same molecule, the TGI [39] was > 100 µM, the TGI [40] was > 100 µM and the TGI [41] was > 100 µM. For the same molecule, the TGI [42] was > 100 µM, the TGI [43] was 44.9 µM and the TGI [59] was > 100 µM. For the same molecule, the TGI [44] was > 100 µM, the TGI [45] was > 100 µM and the TGI [46] was > 100 µM. The TGI [47] was > 100 µM, the TGI [48] was > 100 µM and the TGI [50] was > 100 µM. The TGI [51] was > 100 µM, the TGI [53] was > 100 µM and the TGI [54] was 61.9 µM. The TGI [55] was 80.9 µM and the TGI [56] was 34.2 µM.

In the case of `Cc1nc2c(=O)[nH]c3ccc(Cl)cc3c2o1`, the TGI [1] is reported as > 100 µM, the TGI [3] is reported as > 100 µM and the TGI [4] is reported as > 100 µM. For the same molecule, the TGI [5] was > 100 µM, the TGI [6] was > 100 µM and the TGI [7] was > 100 µM. For the same molecule, the TGI [57] was > 100 µM, the TGI [8] was > 100 µM and the TGI [9] was > 100 µM. For the same molecule, the TGI [10] was > 100 µM, the TGI [58] was > 100 µM and the TGI [11] was > 100 µM. The TGI [12] was > 100 µM, the TGI [13] was > 100 µM and the TGI [14] was > 100 µM. For the same molecule, the TGI [15] was > 100 µM, the TGI [16] was > 100 µM and the TGI [17] was > 100 µM. For the same molecule, the TGI [18] was > 100 µM, the TGI [19] was > 100 µM and the TGI [20] was > 100 µM. The TGI [21] was > 100 µM, the TGI [22] was > 100 µM and the TGI [23] was > 100 µM. The TGI [24] was > 100 µM, the TGI [25] was > 100 µM and the TGI [27] was > 100 µM. For the same molecule, the TGI [28] was > 100 µM, the TGI [29] was > 100 µM and the TGI [30] was > 100 µM. The TGI [31] was > 100 µM, the TGI [32] was > 100 µM and the TGI [33] was > 100 µM. The TGI [34] was > 100 µM, the TGI [35] was > 100 µM and the TGI [36] was > 100 µM. The TGI [37] was > 100 µM, the TGI [38] was > 100 µM and the TGI [39] was > 100 µM. For the same molecule, the TGI [40] was > 100 µM, the TGI [41] was > 100 µM and the TGI [42] was > 100 µM. For the same molecule, the TGI [59] was > 100 µM, the TGI [44] was > 100 µM and the TGI [45] was > 100 µM. For the same molecule, the TGI [46] was > 100 µM, the TGI [47] was > 100 µM and the TGI [48] was > 100 µM. The TGI [49] was > 100 µM, the TGI [50] was > 100 µM and the TGI [51] was > 100 µM. The TGI [52] was > 100 µM, the TGI [53] was > 100 µM and the TGI [54] was > 100 µM. The TGI [55] was > 100 µM and the TGI [56] was > 100 µM.

With `COc1cccc(-c2cc(=O)c3cc(Cl)cnc3[nH]2)c1` the TGI [1] was 3.51 µM, the TGI [2] was > 36.4 µM and the TGI [3] was > 100 µM. The TGI [4] was > 77.2 µM, the TGI [5] was 8.3 µM and the TGI [6] was > 89.9 µM. The TGI [7] was > 87.3 µM, the TGI [57] was 28.3 µM and the TGI [8] was 63.9 µM. For the same molecule, the TGI [9] was 13 µM, the TGI [10] was 23.5 µM and the TGI [58] was > 100 µM. The TGI [11] was > 100 µM, the TGI [12] was 55.4 µM and the TGI [13] was > 78.8 µM. The TGI [14] was > 100 µM, the TGI [15] was > 9.71 µM and the TGI [16] was > 100 µM. The TGI [17] was 76.3 µM, the TGI [18] was > 100 µM and the TGI [19] was > 100 µM. For the same molecule, the TGI [20] was 74.8 µM, the TGI [21] was 20.4 µM and the TGI [22] was 1.57 µM. For the same molecule, the TGI [23] was 10.6 µM, the TGI [25] was > 100 µM and the TGI [26] was > 100 µM. For the same molecule, the TGI [27] was 98.2 µM, the TGI [28] was 31.9 µM and the TGI [29] was > 100 µM. The TGI [30] was > 100 µM, the TGI [31] was > 62 µM and the TGI [32] was > 43 µM. For the same molecule, the TGI [33] was 13.8 µM, the TGI [34] was > 100 µM and the TGI [35] was 7.33 µM. The TGI [36] was 0.783 µM, the TGI [37] was > 62.1 µM and the TGI [38] was > 100 µM. The TGI [39] was > 100 µM, the TGI [40] was 71.8 µM and the TGI [41] was 31.6 µM. For the same molecule, the TGI [42] was 44.2 µM, the TGI [59] was 3.83 µM and the TGI [44] was > 100 µM. It also gave a TGI [45] of 42.2 µM, a TGI [46] of 43.9 µM and a TGI [47] of 9.84 µM. The TGI [48] was > 100 µM, the TGI [49] was > 65.5 µM and the TGI [50] was 0.0239 µM. For the same molecule, the TGI [51] was > 100 µM, the TGI [52] was 2.56 µM and the TGI [53] was 7.59 µM. For the same molecule, the TGI [54] was > 55.6 µM, the TGI [55] was 47.6 µM and the TGI [56] was > 100 µM.
